Measurements from patent US11053204B2, “Pyrimidinyloxy benzene derivatives as herbicides” (FMC Corporation, priority 2015, dated 2021).

Experiments:
Assay type in all cases: in vivo
[1] = system: blackgrass (Alopecurus myosuroides); experiment: Test A postemergence, visual injury rating; conditions: Alopecurus myosuroides, post-emergence, 240 h, 0 is no effect, 100 is complete control, read-out: Blackgrass plant response rating (0 to 100 scale)
How it was run: (§1)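 Compounds in non-phytotoxic solvent with surfactant applied as soil spray preemergence, or postemergence to plants 2-10 cm at one- to two-leaf stage, in loam/sand. After approximately 10 days in greenhouse, injury rated visually versus untreated controls, 0 (no effect) to 100 (complete control).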

[2] = system: barnyardgrass (Echinochloa crus-galli); experiment: Test A postemergence, visual injury rating; conditions: Echinochloa crus-galli, post-emergence, 240 h, 0 is no effect, 100 is complete control, read-out: Barnyardgrass plant response rating (0 to 100 scale)
How it was run: as §1

[3] = system: galium (catchweed bedstraw, Galium aparine); experiment: Test A postemergence, visual injury rating; conditions: Galium, post-emergence, 240 h, 0 is no effect, 100 is complete control, read-out: Galium plant response rating (0 to 100 scale)
How it was run: as §1

[4] = system: blackgrass (Alopecurus myosuroides); experiment: Test C preemergence, plant response rating; conditions: Alopecurus myosuroides, pre-emergence, Preemergence
How it was run: (§2)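 Preemergence: seeds sown in loam–sand blend or silt loam and sprayed with test chemicals in a non-phytotoxic surfactant-containing solvent. Postemergence: potted plants at 2–18 cm (1–4-leaf stage) sprayed with the same formulation. After 13–15 d in greenhouse, visual rating versus controls on 0 (no effect) to 100 (complete control) scale.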

[5] = system: lambsquarters (Chenopodium album); experiment: Test C preemergence, plant response rating; conditions: Chenopodium album, pre-emergence, Preemergence
How it was run: as §2

[6] = system: ragweed (common ragweed, Ambrosia elatior); experiment: Test C preemergence, plant response rating; conditions: Ambrosia artemisiifolia, pre-emergence, Preemergence
How it was run: as §2

corn (Zea mays) = experiment: Test C preemergence, plant response rating; conditions: Zea mays, pre-emergence, Preemergence
How it was run: as §2

[7] = system: wheat (winter wheat, Triticum aestivum); experiment: Test C preemergence, plant response rating; conditions: Triticum aestivum, pre-emergence, Preemergence
How it was run: as §2

[8] = system: oilseed rape (Brassica napus); experiment: Test C preemergence, plant response rating; conditions: Brassica napus, pre-emergence, Preemergence
How it was run: as §2

[9] = system: ryegrass, Italian (Italian ryegrass, Lolium multiflorum); experiment: Test C preemergence, plant response rating; conditions: Lolium multiflorum, pre-emergence, Preemergence
How it was run: as §2

[10] = system: morningglory (Ipomoea coccinea); experiment: Test C preemergence, plant response rating; conditions: Ipomoea, pre-emergence, Preemergence
How it was run: as §2

[11] = system: foxtail, giant (giant foxtail, Setaria faberii); experiment: Test C preemergence, plant response rating; conditions: Setaria faberi, pre-emergence, Preemergence
How it was run: as §2

soybean (Glycine max) = experiment: Test C preemergence, plant response rating; conditions: Glycine max, pre-emergence, Preemergence
How it was run: as §2

[12] = system: waterhemp (common waterhemp, Amaranthus rudis); experiment: Test C preemergence, plant response rating; conditions: Amaranthus tuberculatus, pre-emergence, Preemergence
How it was run: as §2

[13] = system: crabgrass, large (large crabgrass, Digitaria sanguinalis); experiment: Test C preemergence, plant response rating; conditions: Digitaria sanguinalis, pre-emergence, Preemergence
How it was run: as §2

[14] = system: velvetleaf (Abutilon theophrasti); experiment: Test C preemergence, plant response rating; conditions: Abutilon theophrasti, pre-emergence, Preemergence
How it was run: as §2

[15] = system: nutsedge, yellow (yellow nutsedge, Cyperus esculentus); experiment: Test C preemergence, plant response rating; conditions: Cyperus, pre-emergence, Preemergence
How it was run: as §2

Question: For `O=C(OCCC(F)(F)F)c1c(Cl)cccc1Oc1ncc(Cl)cn1` [Compound 15, 3,3,3-trifluoropropyl 2-chloro-6-[(5-chloro-2-pyrimidinyl)oxy]benzoate], which pest or weed control at 125 g/ha ([1]; 125 g ai/ha) is on record?
Answer: 90%

Question: And the pest or weed control at 500 g/ha ([1]; 500 g ai/ha)?
Answer: 100%

Question: What about the pest or weed control at 125 g/ha ([2]; 125 g ai/ha) of the same compound?
Answer: 90%

Question: And the pest or weed control at 500 g/ha ([2]; 500 g ai/ha)?
Answer: 100%

Question: And the pest or weed control at 125 g/ha ([3]; 125 g ai/ha)?
Answer: 100%

Question: And the pest or weed control at 500 g/ha ([3]; 500 g ai/ha)?
Answer: 100%

Question: What about the pest or weed control at 62 g/ha ([4]; 62 g ai/ha, scale of 0 to 100) of the same compound?
Answer: 50%

Question: What about the pest or weed control at 125 g/ha ([4]; 125 g ai/ha, scale of 0 to 100) of the same compound?
Answer: 80%

Question: And the pest or weed control at 16 g/ha ([4]; 16 g ai/ha, scale 0 to 100)?
Answer: 0%

Question: And the pest or weed control at 31 g/ha ([4]; 31 g ai/ha, scale 0 to 100)?
Answer: 0%

Question: And the pest or weed control at 125 g/ha ([5]; 125 g ai/ha, scale of 0 to 100)?
Answer: 95%

Question: And the pest or weed control at 16 g/ha ([5]; 16 g ai/ha, scale 0 to 100)?
Answer: 60%

Question: And the pest or weed control at 31 g/ha ([5]; 31 g ai/ha, scale 0 to 100)?
Answer: 70%

Question: And the pest or weed control at 62 g/ha ([5]; 62 g ai/ha, scale 0 to 100)?
Answer: 85%

Question: What about the pest or weed control at 125 g/ha ([6]; 125 g ai/ha, scale of 0 to 100) of the same compound?
Answer: 20%

Question: What about the pest or weed control at 16 g/ha ([6]; 16 g ai/ha, scale 0 to 100) of the same compound?
Answer: 10%

Question: What about the pest or weed control at 31 g/ha ([6]; 31 g ai/ha, scale 0 to 100) of the same compound?
Answer: 10%

Question: And the pest or weed control at 62 g/ha ([6]; 62 g ai/ha, scale 0 to 100)?
Answer: 30%

Question: What about the Corn plant response rating (crop injury, 0 = no effect, 100 = complete kill) at 62 g/ha (corn (Zea mays); 62 g ai/ha, scale of 0 to 100) of the same compound?
Answer: 10%

Question: And the Corn plant response rating (crop injury, 0 = no effect, 100 = complete kill) at 125 g/ha (corn (Zea mays); 125 g ai/ha, scale of 0 to 100)?
Answer: 25%

Question: What about the Corn plant response rating (crop injury, 0 = no effect, 100 = complete kill) at 16 g/ha (corn (Zea mays); 16 g ai/ha, scale 0 to 100) of the same compound?
Answer: 0%

Question: And the Corn plant response rating (crop injury, 0 = no effect, 100 = complete kill) at 31 g/ha (corn (Zea mays); 31 g ai/ha, scale 0 to 100)?
Answer: 0%

Question: And the plant injury at 125 g/ha ([7]; 125 g ai/ha, scale of 0 to 100)?
Answer: 5%

Question: And the plant injury at 16 g/ha ([7]; 16 g ai/ha, scale 0 to 100)?
Answer: 0%

Question: What about the plant injury at 31 g/ha ([7]; 31 g ai/ha, scale 0 to 100) of the same compound?
Answer: 0%

Question: What about the plant injury at 62 g/ha ([7]; 62 g ai/ha, scale 0 to 100) of the same compound?
Answer: 0%

Question: What about the plant injury at 125 g/ha ([8]; 125 g ai/ha, scale of 0 to 100) of the same compound?
Answer: 100%

Question: What about the plant injury at 16 g/ha ([8]; 16 g ai/ha, scale 0 to 100) of the same compound?
Answer: 30%

Question: And the plant injury at 31 g/ha ([8]; 31 g ai/ha, scale 0 to 100)?
Answer: 100%

Question: What about the plant injury at 62 g/ha ([8]; 62 g ai/ha, scale 0 to 100) of the same compound?
Answer: 100%

Question: What about the pest or weed control at 125 g/ha ([9]; 125 g ai/ha, scale of 0 to 100) of the same compound?
Answer: 50%

Question: And the pest or weed control at 16 g/ha ([9]; 16 g ai/ha, scale 0 to 100)?
Answer: 0%

Question: What about the pest or weed control at 31 g/ha ([9]; 31 g ai/ha, scale 0 to 100) of the same compound?
Answer: 5%

Question: And the pest or weed control at 62 g/ha ([9]; 62 g ai/ha, scale 0 to 100)?
Answer: 15%

Question: What about the pest or weed control at 125 g/ha ([10]; 125 g ai/ha, scale of 0 to 100) of the same compound?
Answer: 60%

Question: And the pest or weed control at 16 g/ha ([10]; 16 g ai/ha, scale 0 to 100)?
Answer: 20%

Question: And the pest or weed control at 31 g/ha ([10]; 31 g ai/ha, scale 0 to 100)?
Answer: 20%

Question: And the pest or weed control at 62 g/ha ([10]; 62 g ai/ha, scale 0 to 100)?
Answer: 35%

Question: What about the pest or weed control at 62 g/ha ([11]; 62 g ai/ha, scale of 0 to 100) of the same compound?
Answer: 100%

Question: What about the pest or weed control at 125 g/ha ([11]; 125 g ai/ha, scale of 0 to 100) of the same compound?
Answer: 100%

Question: And the pest or weed control at 16 g/ha ([11]; 16 g ai/ha, scale 0 to 100)?
Answer: 100%

Question: And the pest or weed control at 31 g/ha ([11]; 31 g ai/ha, scale 0 to 100)?
Answer: 100%

Question: What about the plant injury at 125 g/ha (soybean (Glycine max); 125 g ai/ha, scale of 0 to 100) of the same compound?
Answer: 55%

Question: What about the plant injury at 16 g/ha (soybean (Glycine max); 16 g ai/ha, scale 0 to 100) of the same compound?
Answer: 0%

Question: What about the plant injury at 31 g/ha (soybean (Glycine max); 31 g ai/ha, scale 0 to 100) of the same compound?
Answer: 10%

Question: And the plant injury at 62 g/ha (soybean (Glycine max); 62 g ai/ha, scale 0 to 100)?
Answer: 40%

Question: And the pest or weed control at 125 g/ha ([12]; 125 g ai/ha, scale of 0 to 100)?
Answer: 100%

Question: And the pest or weed control at 16 g/ha ([12]; 16 g ai/ha, scale 0 to 100)?
Answer: 90%

Question: And the pest or weed control at 31 g/ha ([12]; 31 g ai/ha, scale 0 to 100)?
Answer: 100%

Question: And the pest or weed control at 62 g/ha ([12]; 62 g ai/ha, scale 0 to 100)?
Answer: 100%

Question: And the pest or weed control at 62 g/ha ([13]; 62 g ai/ha, scale of 0 to 100)?
Answer: 100%

Question: What about the pest or weed control at 125 g/ha ([13]; 125 g ai/ha, scale of 0 to 100) of the same compound?
Answer: 100%

Question: What about the pest or weed control at 16 g/ha ([13]; 16 g ai/ha, scale 0 to 100) of the same compound?
Answer: 95%

Question: And the pest or weed control at 31 g/ha ([13]; 31 g ai/ha, scale 0 to 100)?
Answer: 100%

Question: And the pest or weed control at 125 g/ha ([14]; 125 g ai/ha, scale of 0 to 100)?
Answer: 100%

Question: What about the pest or weed control at 16 g/ha ([14]; 16 g ai/ha, scale 0 to 100) of the same compound?
Answer: 60%

Question: And the pest or weed control at 31 g/ha ([14]; 31 g ai/ha, scale 0 to 100)?
Answer: 85%

Question: What about the pest or weed control at 62 g/ha ([14]; 62 g ai/ha, scale 0 to 100) of the same compound?
Answer: 100%

Question: What about the pest or weed control at 125 g/ha ([15]; 125 g ai/ha, scale of 0 to 100) of the same compound?
Answer: 50%

Question: And the pest or weed control at 16 g/ha ([15]; 16 g ai/ha, scale 0 to 100)?
Answer: 0%

Question: What about the pest or weed control at 31 g/ha ([15]; 31 g ai/ha, scale 0 to 100) of the same compound?
Answer: 0%

Question: And the pest or weed control at 62 g/ha ([15]; 62 g ai/ha, scale 0 to 100)?
Answer: 5%
